According to patent US5827881A, “Diesters of carbonic acid endowed with antiviral and anti-inflammatory activity” (Italfarmaco S.P.A., priority 1994, dated 1998):
Like-named read-outs stand apart in the source and are kept apart here.

Tests used:
[1] = test system: human TNF (Tumor Necrosis Factor) citotoxicity on LM cells (murine fibroblast strain); experiment: In vitro anti-inflammatory activity: inhibition of the citotoxicity induced by human TNF on a murine fibroblast strain (LM cells, MTT); assay type: cell-based; conditions: Mus musculus; for inhibition at 10 µg/mL: compound 10 μg/ml; for inhibition at 100 µg/mL: compound 100 μg/ml
Procedure: In vitro anti-inflammatory activity
In a 96-square bottomed wells plate 15.000 LM cells (Rubin. B. Y. et al., J.Exp. Med., 162:1099, 1985) were inseminated each well (100 μl) in complete RPMI medium (Flow Lab., Hertz. GB). Each well was added with 50 μl of a solution of a compound to be tested at the due concentration, and 50 μl of a solution of TNF at the due concentration. After 2 days, each well was added with 40 μl of a solution of MTT [3-(4,5-dimethylthiazol-2-yl)-2,5-diphenyltetrazolium bromide], and the whole was incubated at 37° C. for 4 hours, then the content of the wells was sucked up, added with 200 μl/well of dimethylsulfoxide to dissolve the blue crystals of formazane formed because of the cell activity, then the optical density values were read by a reader with a 570 nm filter. […] The optical density values are directly proportional to the inhibitory activity performed by the compounds of the invention against TNF.

[2] = test system: Carrageenan-induced oedema; experiment: Carrageenan-induced oedema (acute inflammation); assay type: in vivo; conditions: oral; for % of inhibition (reduction of the oedema), 1 hour: 1 hour after carrageenan; for % of inhibition (reduction of the oedema), 3 hours: 3 hours after carrageenan; for % of inhibition (reduction of the oedema), 5 hours: 5 hours after carrageenan
Procedure: In vivo anti-inflammatory activity: models of acute inflammation
A. Carrageenan-induced oedema The test is disclosed, inter alia, by Blake, D. R. et al., Ann. Rheum. Dis., 43, 89-93, 1983. The animals were orally administered with 10 or 30 mg/kg doses of the compounds of the invention 1 hour before the injection of carrageenan. The condition of the oedema was checked 1, 3 and 5 hours after said injection. In Table 3 the percentage of reduction of the oedema is set forth.

[3] = test system: 8E51 Cells permanently infected with LAV (Lymphotropic Adenopathy Virus) and MOLT3 cells; experiment: Antiviral activity: syncytia formation inhibition (8E51 cells infected with LAV co-incubated with MOLT3 cells); assay type: cell-based; conditions: Homo sapiens, MOLT-3
Procedure: The antiviral activity of the compound of the invention was evaluated by the test of the syncytia formation inhibition, according to the procedure reported hereinbelow.
8E51 Cells permanently infected with LAV (Lymphotropic Adenopathy Virus) defective of the po1 gene, and MOLT3 cells (CD4+ human T-lymphoblastoid strain), cultured in RPMI 1640 medium with 10% calf fetal serum were co-incubated in a ratio of 1:2, at a concentration of 10^6 cells/ml, and put in 96-conic shaped bottom wells Microtiter plates. The cells were added with some compounds representative of the invention suitably diluted and, after 30 minutes at 37° C., the whole was centrifuged to obtain a sediment. The […] was incubated for further 2 hours at 37° C., then put in square-bottomed wells. The syncytia (10-100 times bigger than the starting cells) were counted with an optic microscope. In the controls about 100-200 syncytia/well could be seen.

[4] = TNF 1 ng/ml, read-out: % of inhibition, TNF (1 ng/ml)
[5] = TNF 5 ng/ml, read-out: % of inhibition, TNF (5 ng/ml)

Row | SMILES | inhibition at 10 µg/mL [1, 4] [%] | inhibition at 100 µg/mL [1, 4] [%] | inhibition at 10 µg/mL [1, 5] [%] | inhibition at 100 µg/mL [1, 5] [%] | inhibition at 50 µM [3] [%] | inhibition at 100 µM [3] [%] | further results
1 | CCCCN(CCCC)CCCC(C)OC(=O)OC(C)CCCN(CCCC)CCCC (stereo not drawn) [10, C]] | 100 | 100 | 73 | 95 | 45.5 | – | % of inhibition (reduction of the oedema), 1 hour ([2]; 10 mg/kg): 26.1%; % of inhibition (reduction of the oedema), 3 hours ([2]; 10 mg/kg): 10%; % of inhibition (reduction of the oedema), 1 hour ([2]; 30 mg/kg): 13%; % of inhibition (reduction of the oedema), 3 hours ([2]; 30 mg/kg): 43%; % of inhibition (reduction of the oedema), 5 hours ([2]; 30 mg/kg): 31.3%; inhibition at 25 µM [3]: 29.5%
2 | CCCCN(CCCC)CCC(C)OC(=O)OC(C)CCN(CCCC)CCCC (stereo not drawn) [8, D]] | 100 | 100 | 56 | 82 | 55 | 27 | inhibition at 12.5 µM ([3]; 12.5 μM): 33%; inhibition at 25 µM [3]: 49%
3 | CCCCN(CCCC)[C@@H]1CCCC[C@H]1OC(=O)OCC1CCCN(C)C1 (stereo partly drawn) [5, C]] | 73 | 36 | 21 | 30 | 22 | 23 | –
4 | CCCCN(CCCC)CCCOC(=O)OC(C)CCCN(CCCC)CCCC (stereo not drawn) [12, B]] | 68 | 65 | 50 | 62 | – | – | –
5 | CC(C)N(CCCCOC(=O)OCCCCN(C(C)C)C(C)C)C(C)C [18, D]] | – | 17 | – | – | 55 | 63 | % of inhibition (reduction of the oedema), 3 hours ([2]; 30 mg/kg): 27%; % of inhibition (reduction of the oedema), 5 hours ([2]; 30 mg/kg): 28.7%
6 | CCCCN(CCCC)CCCOC(=O)OCCCN(CCCC)CCCC [19, D]] | 17 | 48 | – | – | – | – | –
7 | CCCCN(CCCC)[C@@H]1CCCC[C@H]1OC(=O)OCc1cccnc1 (relative stereo) [4, C]] | – | 23 | – | – | 18 | 28 | –
8 | CCCCN1CCC(COC(=O)OCC2CCN(CCCC)CC2)CC1 [1, E]] | 45 | – | – | – | 70 | 79 | inhibition at 25 µM [3]: 56.5%; inhibition at 200 µM ([3]; 200 μM): 97%
9 | O=C(OCCCN(Cc1ccccc1)Cc1ccccc1)OCCCN(Cc1ccccc1)Cc1ccccc1 [17, D]] | – | – | – | – | – | 19 | –
10 | CN(CCCOC(=O)OCCCN(C)Cc1ccccc1)Cc1ccccc1 [16, D]] | – | – | – | 21 | – | 27 | –
11 | CCCCN(CCCC)CCCCCOC(=O)OCCCCCN(CCCC)CCCC [14, E]] | – | 100 | – | 59 | – | – | –
12 | CCN(CC)CCCCCCOC(=O)OCCCCCCN(CC)CC [13, E]] | 55 | 45 | – | 21 | 27.5 | 43.5 | –
13 | CCCCN(CCCC)CCCC(CC)OC(=O)OC(CC)CCCN(CCCC)CCCC (stereo not drawn) [38, E]] | – | – | – | – | – | – | % of inhibition (reduction of the oedema), 1 hour ([2]; 10 mg/kg): 22.5%; % of inhibition (reduction of the oedema), 3 hours ([2]; 10 mg/kg): 15%; % of inhibition (reduction of the oedema), 5 hours ([2]; 10 mg/kg): 20.5%
